Reference: patent publication US8636978B2, “Cyclized NGR peptide compounds, compositions, and methods of their use” (The United States of America, as Represented by the …, priority 2008, dated 2014)
Residues, ends and D or L forms follow the SMILES beside them. No end group written: not given here. *: point of attachment. OregonGreen488(6-carbonyl) = O=C1OC2(c3cc(F)c(O)cc3Oc3cc(O)c(F)cc32)c2cc(C(=O)*)ccc21

Legend:
MCF7 (CD13−) cells = assay: Cell binding by epifluorescent microscopy, CD13-negative cells; type: cell-based, human; conditions: cK(OG)NGRE 20 μM or anti-CD13 antibody 2.5 μg/mL, 37° C., 30 min
Method: (§1) Human fibrosarcoma (HT-1080) and human adenocarcinoma (MCF7) cells were purchased from American Type Culture Collection (ATCC, Manassas, Va.). HT-1080 cells were grown in MEME (ATCC) supplemented with 10% fetal bovine serum (ATCC), and MCF7 cells were grown in the same culture medium with the addition of 0.01 mg/mL bovine insulin (Sigma-Aldrich, St. Louis, Mo.). Both cell lines were maintained in a 5% CO2 incubator at 37° C. Anti-CD13 monoclonal antibody (WM15, Alexa Fluor 488-conjugated) was obtained from AbD Serotec (Raleigh, N.C.).
(§2) Cellular binding of cK(OG)NGRE to the CD13/APN marker was assessed by plating HT-1080 (CD13+) and MCF7 (CD13−) cells in eight-chambered slides (LabTekII, Nunc, Rochester, N.Y.) at a concentration of 15,000 cells/well. After 24 h, cells were washed once with phosphate-buffered saline (PBS) and incubated in complete culture media at 37° C. for 30 min with either cK(OG)NGRE (20 μM) or the anti-CD13 antibody (final concentration 2.5 μg/mL). Slides were washed twice with PBS for 5 min, fixed in 4% paraformaldehyde for 20 min, and mounted with Prolong Gold antifade reagent with DAPI (Invitrogen, Carlsbad, Calif.) and imaged with an epifluorescent microscope (Zeiss Axio Imager.M1, Thornwood, N.Y.) after 24 h. […]

HT-1080 (CD13+) cells = assay: Cell binding by epifluorescent microscopy, CD13-positive cells; type: cell-based, human; conditions: 37° C.
Method: as §1, §2

[1] = system: CD13-positive HT-1080 cells

| EC50 [1] | Molecule | in vitro binding to MCF7 cells (fluorescence micrographs) (MCF7 (CD13−) cells) | in vitro binding to HT-1080 cells (fluorescence micrographs) (HT-1080 (CD13+) cells; cK(OG)NGRE 20 μM or anti-CD13 antibody 2.5 μg/mL, 30 min) | localization of fluorescence in HT-1080 cells (HT-1080 (CD13+) cells; epifluorescent microscopy, 30 min incubation) |
| --- | --- | --- | --- | --- |
| 61 µM | N=C(N)NCCC[C@@H]1NC(=O)CNC(=O)[C@H](CC(N)=O)NC(=O)[C@H](CCCCNC(=O)c2ccc3c(c2)C2(OC3=O)c3cc(F)c(O)cc3Oc3cc(O)c(F)cc32)NC(=O)[C@H](CCC(N)=O)NC1=O [cK(OG)NGRE] (cyclo(K(OregonGreen488(6-carbonyl))NGRQ)) | minimal binding | clearly demonstrated binding | internalization of the peptide |
| 220 µM | KNGRE [reference compound] |  |  |  |
